Results published in ChEMBL document CHEMBL1128467, “Novel, potent, and selective 5-HT3 receptor antagonists based on the arylpiperazine skeleton: synthesis, structure, biological activity, and comparative molecular field analysis studies” (J Med Chem, 1995).

Assays:
[1] = biological target: T1, 5-hydroxytryptamine receptor 2A (Rattus norvegicus, UniProt P14842)
[2] = biological target: T2, 5-hydroxytryptamine receptor 1B (Rattus norvegicus, UniProt P28564); type: tissue-based, Striatum
[3] = biological target: T3, Serotonin 3 (5-HT3) receptor (Rattus norvegicus, UniProt P35563+Q9JJ16); assay: Binding affinity for 5-hydroxytryptamine 3 receptor from rat cortex using [3H]BRL-43694 as radioligand
T3 sequence (P35563 whole entry): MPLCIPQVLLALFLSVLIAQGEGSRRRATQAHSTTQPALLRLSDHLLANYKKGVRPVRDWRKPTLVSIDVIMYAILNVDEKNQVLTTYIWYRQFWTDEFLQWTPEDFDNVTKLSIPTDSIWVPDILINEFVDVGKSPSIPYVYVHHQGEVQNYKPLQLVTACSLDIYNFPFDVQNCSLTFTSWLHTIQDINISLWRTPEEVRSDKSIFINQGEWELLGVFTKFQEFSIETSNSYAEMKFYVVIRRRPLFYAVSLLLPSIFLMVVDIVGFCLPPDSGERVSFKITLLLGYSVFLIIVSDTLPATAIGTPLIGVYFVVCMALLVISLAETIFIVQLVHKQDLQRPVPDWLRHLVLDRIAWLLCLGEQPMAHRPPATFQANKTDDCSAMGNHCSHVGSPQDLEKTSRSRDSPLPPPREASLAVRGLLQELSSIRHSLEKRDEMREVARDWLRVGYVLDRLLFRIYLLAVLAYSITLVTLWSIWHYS
T3 sequence (Q9JJ16 whole entry): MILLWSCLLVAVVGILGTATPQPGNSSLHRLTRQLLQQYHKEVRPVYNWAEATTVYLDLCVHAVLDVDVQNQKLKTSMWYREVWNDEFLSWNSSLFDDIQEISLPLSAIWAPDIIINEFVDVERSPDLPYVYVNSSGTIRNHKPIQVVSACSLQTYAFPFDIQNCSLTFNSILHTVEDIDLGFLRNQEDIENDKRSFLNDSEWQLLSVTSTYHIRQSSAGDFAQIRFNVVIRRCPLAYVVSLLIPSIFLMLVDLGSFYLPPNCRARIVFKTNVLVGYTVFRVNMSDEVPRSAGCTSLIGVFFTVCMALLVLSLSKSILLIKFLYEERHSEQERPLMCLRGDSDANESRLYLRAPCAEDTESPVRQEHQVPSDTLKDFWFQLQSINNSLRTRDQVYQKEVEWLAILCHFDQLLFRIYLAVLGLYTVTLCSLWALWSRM

[4] = biological target: 5-hydroxytryptamine receptor 2C (Sus scrofa); assay: The compound was tested for their binding affinity towards 5-hydroxytryptamine 2C receptor
[5] = biological target: T4, Sodium-dependent serotonin transporter (Rattus norvegicus, UniProt P31652)
[6] = test system: 5-hydroxytryptamine receptor 2C (Sus scrofa)
[7] = biological target: T5, 5-hydroxytryptamine receptor 1A (Rattus norvegicus, UniProt P19327); type: tissue-based, Hippocampus
T5 sequence (P19327 whole entry): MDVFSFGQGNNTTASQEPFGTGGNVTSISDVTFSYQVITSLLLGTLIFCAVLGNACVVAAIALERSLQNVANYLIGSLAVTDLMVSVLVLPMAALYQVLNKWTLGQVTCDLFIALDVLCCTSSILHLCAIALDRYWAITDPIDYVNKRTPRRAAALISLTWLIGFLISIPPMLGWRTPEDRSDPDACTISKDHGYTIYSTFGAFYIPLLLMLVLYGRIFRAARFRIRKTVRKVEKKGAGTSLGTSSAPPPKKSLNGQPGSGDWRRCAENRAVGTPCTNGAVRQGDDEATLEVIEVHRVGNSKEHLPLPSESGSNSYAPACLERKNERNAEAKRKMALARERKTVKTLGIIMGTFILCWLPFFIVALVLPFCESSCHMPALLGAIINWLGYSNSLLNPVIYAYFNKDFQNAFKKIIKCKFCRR

[8] = biological target: T2, 5-hydroxytryptamine receptor 1B; assay: The compound was tested for their binding affinity towards 5-hydroxytryptamine 1B receptor from rat striatum using [3H]5-HT as radioligand; Nonactive at 10 uM
[9] = biological target: T1, 5-hydroxytryptamine receptor 2A; assay: The compound was tested for its binding affinity towards 5-hydroxytryptamine 2A receptor from rat cortex using [3H]-ketanserin as radioligand; Nonactive at 10 uM
[10] = biological target: T6, 5-hydroxytryptamine receptor 4 (Cavia porcellus, UniProt O70528); assay: The compound was tested for their binding affinity towards 5-hydroxytryptamine 4 receptor from guinea pig striatum using [3H]GR-113808 as radioligand.
[11] = biological target: T2, 5-hydroxytryptamine receptor 1B; assay: The compound was tested for their binding affinity towards 5-hydroxytryptamine 1B receptor from rat striatum using [3H]5-HT as radioligand
[12] = biological target: T6, 5-hydroxytryptamine receptor 4
[13] = biological target: T3, Serotonin 3 (5-HT3) receptor; assay: The compound was tested for its binding affinity towards 5-hydroxytryptamine 3 receptor from rat cortex using [3H]BRL-43694 as radioligand; NA means Not active
[14] = test system: 5-hydroxytryptamine receptor 2C (Sus scrofa); assay: The compound was tested for their binding affinity towards 5-hydroxytryptamine 2C receptor from pig cortex using [3H]mesulergine as radioligand; Nonactive at 10 uM
[15] = biological target: T6, 5-hydroxytryptamine receptor 4; assay: Displacement of [3H]-GR113808 from 5-HT4 receptor of guinea pig striatum
[16] = biological target: T2, 5-hydroxytryptamine receptor 1B; assay: The compound was tested for their binding affinity towards 5-hydroxytryptamine 1B receptor from rat striatum using [3H]5-HT as radioligand.
[17] = test system: 5-hydroxytryptamine receptor 2C (Sus scrofa); assay: The compound was tested for their binding affinity towards 5-hydroxytryptamine 2C receptor using [3H]mesulergine as radioligand; Nonactive at 10 uM
[18] = biological target: T4, Sodium-dependent serotonin transporter; assay: Effect of compound on Serotonin transporter uptake from rat cortex using [3H]citalopram as radioligand
[19] = biological target: T6, 5-hydroxytryptamine receptor 4; assay: The compound was tested for their binding affinity towards 5-hydroxytryptamine 4 receptor from guinea pig striatum using [3H]GR-113808 as radioligand; Nonactive at 10 uM
[20] = biological target: T3, Serotonin 3 (5-HT3) receptor; assay: The compound was tested for their binding affinity towards 5-hydroxytryptamine 3 receptor; Nonactive at 10 uM; type: protein-complex assay
[21] = biological target: T1, 5-hydroxytryptamine receptor 2A; assay: The compound was tested for its binding affinity towards 5-hydroxytryptamine 2A receptor from rat cortex using [3H]ketanserin as radioligand.; Nonactive at 10 uM
[22] = biological target: T4, Sodium-dependent serotonin transporter; assay: Effect of compound on Serotonin transporter uptake from rat cortex using [3H]citalopram as radioligand; Nonactive at 10 uM

T4 sequence (P31652 whole entry): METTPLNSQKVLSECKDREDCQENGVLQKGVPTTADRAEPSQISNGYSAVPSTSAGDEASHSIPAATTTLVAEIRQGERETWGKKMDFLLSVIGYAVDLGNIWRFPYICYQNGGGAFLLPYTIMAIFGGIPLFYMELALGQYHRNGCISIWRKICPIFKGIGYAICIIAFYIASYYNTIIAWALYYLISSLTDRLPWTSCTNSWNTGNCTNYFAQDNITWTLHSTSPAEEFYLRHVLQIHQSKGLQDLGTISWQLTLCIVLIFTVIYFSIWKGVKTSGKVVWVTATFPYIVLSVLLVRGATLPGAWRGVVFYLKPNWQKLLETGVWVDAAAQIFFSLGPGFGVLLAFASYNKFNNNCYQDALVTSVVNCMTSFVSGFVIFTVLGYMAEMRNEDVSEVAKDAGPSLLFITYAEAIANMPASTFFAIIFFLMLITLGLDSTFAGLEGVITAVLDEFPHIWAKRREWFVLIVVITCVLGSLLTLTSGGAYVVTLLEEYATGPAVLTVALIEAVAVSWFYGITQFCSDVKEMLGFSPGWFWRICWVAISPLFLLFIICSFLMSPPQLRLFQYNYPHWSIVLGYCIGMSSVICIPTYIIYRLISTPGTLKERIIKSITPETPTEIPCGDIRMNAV
T6 sequence (O70528 whole entry): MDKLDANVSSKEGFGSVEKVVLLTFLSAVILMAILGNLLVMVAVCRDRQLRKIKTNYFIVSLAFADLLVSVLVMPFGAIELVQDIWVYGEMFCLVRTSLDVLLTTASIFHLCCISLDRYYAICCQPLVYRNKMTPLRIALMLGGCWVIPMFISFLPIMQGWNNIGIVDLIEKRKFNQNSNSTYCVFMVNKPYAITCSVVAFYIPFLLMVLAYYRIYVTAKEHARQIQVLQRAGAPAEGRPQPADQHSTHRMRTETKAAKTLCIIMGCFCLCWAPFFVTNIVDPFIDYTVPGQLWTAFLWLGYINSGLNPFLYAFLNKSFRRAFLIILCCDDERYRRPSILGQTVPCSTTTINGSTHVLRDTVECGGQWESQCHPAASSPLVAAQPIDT
T1 sequence (P14842 whole entry): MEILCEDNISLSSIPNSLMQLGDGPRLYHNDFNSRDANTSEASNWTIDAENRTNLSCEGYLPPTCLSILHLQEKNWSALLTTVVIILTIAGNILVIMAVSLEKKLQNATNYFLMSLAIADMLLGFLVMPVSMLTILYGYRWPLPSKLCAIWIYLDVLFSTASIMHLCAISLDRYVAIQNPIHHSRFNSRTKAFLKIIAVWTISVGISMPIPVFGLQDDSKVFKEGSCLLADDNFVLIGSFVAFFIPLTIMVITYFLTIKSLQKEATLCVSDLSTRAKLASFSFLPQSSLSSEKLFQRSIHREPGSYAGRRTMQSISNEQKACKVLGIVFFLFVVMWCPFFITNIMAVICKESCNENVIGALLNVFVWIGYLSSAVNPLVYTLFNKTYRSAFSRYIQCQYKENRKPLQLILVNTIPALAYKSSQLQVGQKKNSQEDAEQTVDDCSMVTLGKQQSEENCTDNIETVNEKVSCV
T2 sequence (P28564 whole entry): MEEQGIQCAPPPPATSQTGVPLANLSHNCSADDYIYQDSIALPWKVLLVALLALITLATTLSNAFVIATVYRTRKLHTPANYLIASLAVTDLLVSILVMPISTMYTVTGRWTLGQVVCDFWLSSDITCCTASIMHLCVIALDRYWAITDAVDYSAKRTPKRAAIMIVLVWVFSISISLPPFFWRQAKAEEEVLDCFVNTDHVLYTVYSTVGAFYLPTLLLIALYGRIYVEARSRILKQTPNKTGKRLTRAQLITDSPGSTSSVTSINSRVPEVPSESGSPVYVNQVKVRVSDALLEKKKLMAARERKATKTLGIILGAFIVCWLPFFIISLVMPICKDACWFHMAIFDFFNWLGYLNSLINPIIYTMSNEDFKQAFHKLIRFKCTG

SMILES	Ki ([1]; read-out: Ki) [nM]	Ki [2]	Ki [3] [nM]	Ki [5]	Ki [6]	Ki [7]	also measured
COc1cc2c(N3CCN(C)CC3)nc3ccccc3c2c2ccccc12	240	Not Active	41.6	–	–	–	Ki [4]: 2300 nM
CCN1CCN(c2nc3ccccc3c3c2ccc2ccccc23)CC1	640	Not Active	16.4	Not Active	Not Active	Not Active	–
CCN1CCN(c2nc3ccccc3c3c2cc(OC)c2ccccc23)CC1	690	Not Active	220	–	Not Active	–	–
CCN1CCN(c2nc3ccccc3c3c2CCOc2ccccc2-3)CC1	–	–	–	–	–	Not Active	Ki [8]: Not Active; Ki [9]: Not Active
CN1CCN(c2nc3ccccc3c3c2oc2ccccc23)CC1	450	Not Active	12.5	Not Active	Not Active	Not Active	Ki ([10]; read-out: Ki): 6900 nM
COc1cc2c(N3CCNCC3)nc3ccccc3c2c2ccccc12	1100	Not Active	66.5	Not Active	Not Active	Not Active	–
CN(C)CCSc1nc2ccccc2c2c1CCOc1ccccc1-2	2800	–	45.9	Not Active	Not Active	Not Active	Ki [11]: 1300 nM
CN1CCN(c2nc3ccccc3c3c2COc2ccccc2-3)CC1	1400	Not Active	1.6	Not Active	Not Active	Not Active	Ki [12]: Not Active
COc1cc2c(SCCN(C)C)nc3ccccc3c2c2ccccc12	–	Not Active	–	Not Active	Not Active	Not Active	Ki [1]: Not Active; Ki [13]: Not Active
CN1CCN(c2nc3ccccc3c3c2ccc2ccccc23)CC1	920	Not Active	9.5	Not Active	–	Not Active	Ki [10]: Not Active; Ki [14]: Not Active
CN1CCN(c2nc3ccccc3c3c2CCc2ccccc2-3)CC1	400	–	3.5	Not Active	–	Not Active	Ki [8]: Not Active; Ki [15]: 6600 nM; Ki [4]: 7200 nM
c1ccc2c(c1)nc(N1CCNCC1)c1oc3ccccc3c12	1200	–	32.5	Not Active	–	Not Active	Ki [16]: 280 nM; Ki [17]: Not Active
c1ccc2c(c1)OCCc1c(N3CCNCC3)nc3ccccc3c1-2	3200	–	–	–	–	Not Active	Ki [11]: 420 nM; Ki [18]: 330 nM
c1ccc2c(c1)ccc1c(N3CCNCC3)nc3ccccc3c12	1100	Not Active	130	Not Active	Not Active	Not Active	–
CCN1CCN(c2nc3ccccc3c3c2COc2ccccc2-3)CC1	1100	Not Active	53.3	Not Active	Not Active	Not Active	–
CN1CCN(c2nc3ccccc3c3c2CCOc2ccccc2-3)CC1	2400	Not Active	–	–	–	Not Active	Ki [19]: Not Active
c1ccc2c(c1)CCc1c(N3CCNCC3)nc3ccccc3c1-2	640	Not Active	5.4	–	Not Active	Not Active	Ki [18]: 2600 nM
CN(C)CCSc1nc2ccccc2c2c1ccc1ccccc12	2400	Not Active	–	Not Active	Not Active	Not Active	Ki [20]: Not Active
CN(C)CCSc1nc2ccccc2c2c1COc1ccccc1-2	1800	Not Active	–	Not Active	Not Active	Not Active	Ki [20]: Not Active
CN(C)CCSc1nc2ccccc2c2c1CCc1ccccc1-2	930	–	–	–	Not Active	Not Active	Ki [20]: Not Active; Ki [8]: Not Active
CN(C)CCSc1nc2ccccc2c2c1oc1ccccc12	–	Not Active	410	Not Active	Not Active	Not Active	Ki [21]: Not Active
CCN1CCN(c2nc3ccccc3c3c2oc2ccccc23)CC1	530	Not Active	52.2	–	Not Active	Not Active	Ki [22]: Not Active
CCN1CCN(c2nc3ccccc3c3c2CCc2ccccc2-3)CC1	600	Not Active	8	Not Active	Not Active	Not Active	–
c1ccc2c(c1)OCc1c(N3CCNCC3)nc3ccccc3c1-2	2800	Not Active	11.5	–	Not Active	Not Active	Ki [18]: 360 nM
c1ccc2c(CCC3CCNCC3)c[nH]c2c1 [INDALPINE]	–	–	–	–	–	–	Ki [18]: 2 nM
c1ccc2nc(N3CCNCC3)ccc2c1 [QUIPAZINE]	130	–	1.2	–	–	–	Ki [12]: Not Active; Ki [11]: 208 nM; Ki [18]: 43 nM
